Measurements reported in patent US20140056951A1, “METHODS AND COMPOSITIONS FOR TREATING BIOFILMS” (PRESIDENT AND FELLOWS OF HARVARD COLLEGE, priority 2011, published 2014).
Where two headings read alike, the source gives them in different places.

Experiments:
[1] = test system: S. aureus strain SCO1; test: Submerged biofilm formation by S. aureus, crystal violet staining; type: cell-based, Staphylococcus aureus; conditions: for inhibition of S. aureus biofilm formation: TSB with NaCl (3%) and Glucose (0.5%), norspermidine 10 μM, norspermine 100 μM; for inhibition of S. aureus submerged biofilm formation, compound screen: compounds tested at 500 μM
Method: (§1) The compounds were tested at 500 μM. Biofilm formation was visualized by crystal violet staining of submerged biofilms.
(§2) Whether polyamines might prevent biofilm formation by other bacteria that produce an exopolysaccharide matrix was examined. […] The compounds were tested at 500 μM. Biofilm formation was visualized by crystal violet staining of submerged biofilms.
The medium was applied with norspermidine (10 μM), norspermine (100 μM) or spermine (500 μM). Planktonic cells were removerd (19A-D). Wells were washed once, and incubated with Crystal Violet (0.1%) for 15 mins. Wells were washed twice in DDW (19E-H).
The effect of certain polyamines combined with biofilm-inhibiting D-amino acids in Staphylococcus was examined. S. aureus strain SC-01 was grown to a mid-logarithmic phase and diluted 1:1000 into a 12 wells plate in a TSB medium applied with NaCl (3%) and Glucose (0.5%). The medium was applied with either norspermidine or D-tyrosine or both as indicated below each panel. Planktonic cells were removerd Wells were washed once, and incubated with Crystal Violet (0.1%) for 15 mins. Wells were washed twice in DDW.

[2] = test system: Proteus mirabilis strain BB2000; test: Proteus mirabilis biofilm formation in polystyrene wells, crystal violet staining; type: cell-based; conditions: 1 mM, M9 + glucose, 48 hours at 30° C., OD 595 nm
Method: To examine the effects of polyamines on biofilm formation, wells were initially treated with water (no treatment), 1 mM norspermidine, and 1 mM norspermine in 3 ml M9 + glucose before inoculation with P. mirabilis. Biofilms were permitted to grow for 48 hours at 30° C. without shaking The amount of biofilm formed was assessed with the standard assay of crystal violet staining (O'Toole G et al., Biofilm formation as microbial development, Annu Rev. Microbiol. (2000) 54:49-79); supernatant was removed from the wells and crystal violet (at […]) was then incubated in each well for 15 minutes at room temperature, followed by removal of the crystal violet from the wells and a subsequent washes with water. Any crystal violet attached the wells was next solubilized with 95% ethanol for 15 minutes at room temperature, and the subsequent optical density at 595 nm in each well was measured with a multiplate reader.

[3] = test system: P. aeriginosa strain PA14; test: Biofilm formation by Pseudomonas on solid M63 medium; type: cell-based, Pseudomonas aeruginosa; conditions: 1 μl of cells mixed with 1 μl (10 mM) polyamine
Method: The effect of polyamines on biofilm formation by Pseudomonas was examined. P. aeriginosa strain PA14 were grown to a mid-logarithmic phase and 1 μl of cells was mixed with 1 μl (10 mM) of each polyamine. The mixture was plated on solid M63 medium.

[4] = test system: B. subtilis pellicles; test: Disassembly of pre-formed pellicles, B. subtilis; type: cell-based, Bacillus subtilis; conditions: 250 μM applied at day 2, additional 24 hrs
Method: After incubation for the indicated times, pellicle material and the medium were separated and each brought to a volume of 3 ml. After mild sonication, the OD600 was determined for each sample. The % of disassembly represents the OD600 of the medium as a percent of the sum of the OD600 of the medium and the OD600 of the pellicle. […] Thus, D-amino acids and norspermidine act synergistically in preventing biofilm formation and triggering the disassembly of mature biofilms.
Whether polyamines could trigger disassembly of biofilms formed by B. subtilis was examined. B. subtilis wild-type cells grown in liquid biofilm medium. Cells were grown to mid-logarithmic phase and diluted 1:1000 in liquid biofilm media. At day 2, pre-formed pellicles were applied with either PBS (A) or norspermine (250 μM) (B). Pellicles were incubated for additional 24 hrs.

[5] = test system: B. subtilis strain NCBI3610; test: Biofilm (pellicle) inhibition assay, B. subtilis in liquid biofilm-inducing medium; type: cell-based, Bacillus subtilis; conditions: for minimal effective concentration: Bacillus subtilis; for inhibition of pellicle formation at 50 μM: cells diluted 1:1000 in biofilm media, final concentration 50 μM
Method: Bacillus subtilis strains PY79, 3610 and their derivatives were grown in Luria-Bertani (LB) medium at 37° C. or MSgg medium (1) at 23° C. Solid media contained 1.5% Bacto agar. When appropriate, antibiotics were added at the following concentrations for growth of B. subtilis: 10 μg per ml of tetracycline, and 5 μg per ml of erythromycin, 500 μg per ml of spectinomycin.
B. subtilis strain NCBI3610 was grown at 22° C. in 12-well plates in liquid biofilm-inducing medium for 3 or 8 days. Conditioned medium (500 ml) from an 8-day-old culture was concentrated on the C-18 column and eluted step-wise with methanol. […]
Pellicle formation of strain NCBI 3610 was tested in the presence of the indicated concentrations of norspermidine (FIG. 1D) or spermidine (FIG. 1E).
To identify features of norspermidine important for its biofilm disassembly activity, we tested a library of polyamines in our biofilm inhibition assay (FIGS. 9A, 9B, 10 and Table 2).
The effect of polyamines on pellicle formation by B. subtilis was examined. B. subtilis wild-type cells were grown to a mid-logarithmic phase and diluted 1:1000 in biofilm media applied with each polyamine to the final concentration of 50 μM.
The effect of cyclic polyamines on biofilm formation by B. subtilis was examined. B. subtilis wild-type cells were grown to a mid-logarithmic phase and diluted 1:1000 in biofilm media (18A) or in a medium applied with cyclic compound 1,5,9-Triazacyclododecane to the final concentration of 50 μM (18B).

[6] = test system: E. coli strain MC4100; test: Submerged biofilm formation by E. coli, crystal violet staining; type: cell-based, Escherichia coli; conditions: compounds tested at 500 μM
Method: as §1, §2
(§3) In testing E. coli, the biofilm-proficient strain MC4100 was selected because a major component of exopolysacchride is colanic acid (Danese et al., 2000; Price and Raivio, 2009).

[7] = test system: B. subtilis wild-type cells; test: Biofilm formation on solid biofilm medium, B. subtilis; type: cell-based, Bacillus subtilis; conditions: 1 μl of cells mixed with 1 μl (1 mM) polyamine
Method: B. subtilis wild-type cells were grown to a mid-logarithmic phase and 1 μl of cells was mixed with 1 μl (1 mM) of each polyamine. The mixture was plated on solid biofilm medium.
B. subtilis wild-type cells were grown to a mid-logarithmic phase and 1 μl of cells was either mixed with PBS (18C) or mixed with 1 μl (1 mM) of each polyamine (18D). The mixture was plated on solid biofilm medium. “3*” refers to 1,5,9-Triazacyclododecane.

[8] = test system: exopolysaccharide of E. coli cells; test: Fluorescence microscopy of exopolysaccharide staining, E. coli; type: cell-based, Escherichia coli
Excerpt: as §3

[9] = test system: B. subtilis NCBI 3610 / strain FC5 (PepsA-lacZ); test: Growth and matrix operon expression in shaking MSgg medium; type: cell-based, Bacillus subtilis; conditions: 100 μM, MSgg medium with shaking
Method: Strain FC5 (carrying PepsA-lacZ) was grown in MSgg medium containing norspermidine (100 μM) with shaking or in untreated medium as control (NT).
NCBI 3610 was grown in MSgg medium applied with norspermidine (100 μM) with shaking or in untreated medium served as a control (NT). […] Therefore, whether norspermidine interacts directly with the exopolysaccharide was investigated. To attempt to detect such an interaction, dynamic light scattering was used. Dynamic scattering is a standard procedure for measuring the average radius of polymers in which a laser beam is transmitted through a sample containing polymers in solution (Berne, 1976; Orgad et al., 2011; Vinayahan et al., 2010).

[10] = test system: exopolysaccharide and TasA of B. subtilis NCBI 3610; test: Fluorescence microscopy of matrix components (concanavalin A-Texas Red, TasA-mCherry), B. subtilis; type: cell-based, Bacillus subtilis
Excerpt: The cells were washed in PBS and stained for exopolysaccharide with a conjugate of concanavalin A with Texas-Red.
[…] Cells were washed in PBS, and visualized by fluorescence microscopy.
To investigate further, exopolysaccharide was visualized by fluorescence microscopy using a conjugate of the carbohydrate-binding protein concanavalin A with Texas Red (FIG. 5) (McSwain et al., 2005). As evidence of specificity, the conjugate decorated wild-type cells but not cells from a mutant (Aeps) blocked in exopolysaccharide production (FIG. 6A). Indeed, at an exposure at which concanavalin A staining with the wild type strain gave an extremely bright fluorescent signal, little or no signal could be detected for the Aeps mutant, except at long exposures and enhanced brightness (FIG. 6A). Next, we investigated the effects of norspermidine and spermidine. […] Therefore, the difference in the staining was evidently due to differential levels of cell-associated exopolysaccharide. […] Thus, while not being bound to any theory, it is believed that norspermidine disrupts the matrix and by targeting exopolysaccharide.

[11] = test system: exopolysaccharide of S. aureus cells; test: Fluorescence microscopy of exopolysaccharide staining, S. aureus; type: cell-based, Staphylococcus aureus
[12] = test system: B. subtilis exopolysaccharide mutant (ΔepsH; DS76) and TasA mutant (ΔtasA; FC55); test: Pellicle formation by matrix mutants in presence of norspermidine; type: cell-based, Bacillus subtilis; conditions: 25 μM norspermidine, 3-day-old cultures
Excerpt: It was observed that the residual pellicle (wispy fragments of floating material with some structure) produced in the presence of norspermidine resembled pellicles seen for a mutant blocked in exopolysaccharide production but not those seen (thin, featureless pellicles) for a mutant blocked in amyloid-fiber production. […] In other words, the effect of norspermidine was synergistic with that of a mutation blocking fiber formation but not with a mutant blocked in exopolysaccharide production (FIG. 4B).

SMILES | inhibition of S. aureus biofilm formation [1] | inhibition of S. aureus submerged biofilm formation, compound screen [1] | reduction of Proteus mirabilis biofilm formation [2] | inhibition of Pseudomonas biofilm formation [3] | disassembly of pre-formed pellicles [4] | minimal effective concentration ([5]; NCBI3610, B. subtilis biofilm inhibition assay, library of polyamines, read-out: MBIC- Minimal Biofilm Inhibitory Concentration) [µM] | inhibition of pellicle formation at 50 μM [5] | biofilm-inhibitory activity against B. subtilis ([5]; library of polyamines, structure-activity) | inhibition of E. coli submerged biofilm formation [6] | inhibition of biofilm formation on solid biofilm medium [7] | staining of exopolysaccharide, E. coli cells [8] | cell growth [9] | pattern of concanavalin A-Texas Red staining of exopolysaccharide ([10]; norspermidine 25 μM, spermidine 1 mM) | effect on protein component of the matrix (TasA-mCherry) ([10]; norspermidine 50 μM) | minimal effective concentration ([5]; NCBI3610, read-out: MBIC- Minimal Biofilm Inhibitory Concentration) [µM] | concentration at which biofilm formation was inhibited ([5]; authentic norspermidine, pellicle formation NCBI3610) [µM] | staining of exopolysaccharide, S. aureus cells [11] | effect on pellicle formation by amyloid fiber (TasA) mutant [12] | effect on residual pellicle of exopolysaccharide mutant [12]
NCCCNCCCNCCCN [Molecule 2, N′-[3-(3-aminopropylamino)propyl]propane-1,3-diamine] | inhibit biofilm formation | inhibited the formation of submerged biofilms | sufficient to reduce biofilm formation | inhibit biofilm formation | triggered disassembly of the pellicles | 200 | inhibit biofilm formation | exhibited biofilm-inhibitory activity | inhibited the formation of submerged biofilms | inhibit biofilm formation |  |  |  |  |  |  |  |  | 
NCCCNCCCN [Molecule 1, N-(3-aminopropyl)propane-1,3-diamine] | inhibit biofilm formation | inhibited the formation of submerged biofilms | sufficient to reduce biofilm formation | inhibit biofilm formation |  |  | inhibit biofilm formation |  | inhibited the formation of submerged biofilms | inhibit biofilm formation | markedly diminished staining of exopolysaccharide | not significantly inhibited | disrupted the relatively uniform, cell-associated pattern of staining | little or no effect on the protein component of the matrix | 25 to 50 | 25 | markedly diminished staining of exopolysaccharide | abolished pellicle formation | little effect on the residual pellicle
